Results published in PubChem BioAssay (NCI).
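In this assay, cells in 96-well plates receive the compound at five concentrations for 48 hours. Endpoints are linearly interpolated between the surrounding concentrations. GI50 is the concentration that inhibits growth by half. Definition used: TGI = concentration required for complete inhibition of growth.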

Columns and labels:
Test in all cases: NCI anticancer screen, dose series, 48 h
SNB-75 CNS = system: SNB-75 CNS
HL-60(TB) leukemia = system: HL-60(TB) leukemia
UACC-257 melanoma = system: UACC-257 melanoma
KM12 colon = system: KM12 colon
HCT-15 colon = system: HCT-15 colon
RXF 393 renal = system: RXF 393 renal
COLO 205 colon = system: COLO 205 colon
MDA-MB-231 breast = system: MDA-MB-231 breast
UACC-62 melanoma = system: UACC-62 melanoma
SNB-19 CNS = system: SNB-19 CNS
MDA-MB-435 = system: MDA-MB-435
ACHN renal = system: ACHN renal
DU-145 prostate = system: DU-145 prostate
HOP-92 NSCLC = system: HOP-92 NSCLC
HOP-62 NSCLC = system: HOP-62 NSCLC
T-47D breast = system: T-47D breast
SK-MEL-5 melanoma = system: SK-MEL-5 melanoma
IGROV1 ovarian = system: IGROV1 ovarian
OVCAR-8 ovarian = system: OVCAR-8 ovarian
NCI/ADR-RES ovarian = system: NCI/ADR-RES ovarian
SK-MEL-28 melanoma = system: SK-MEL-28 melanoma
RPMI-8226 leukemia = system: RPMI-8226 leukemia
HCC-2998 colon = system: HCC-2998 colon
A498 renal = system: A498 renal
OVCAR-5 ovarian = system: OVCAR-5 ovarian
NCI-H460 lung = system: NCI-H460 lung
U251 CNS = system: U251 CNS
NCI-H522 lung = system: NCI-H522 lung
MALME-3M melanoma = system: MALME-3M melanoma
SN12C renal = system: SN12C renal
LOX IMVI melanoma = system: LOX IMVI melanoma
SR leukemia = system: SR leukemia
TK-10 renal = system: TK-10 renal
K-562 leukemia = system: K-562 leukemia
CCRF-CEM leukemia = system: CCRF-CEM leukemia
UO-31 renal = system: UO-31 renal
M14 melanoma = system: M14 melanoma
SF-268 CNS = system: SF-268 CNS
HCT-116 colon = system: HCT-116 colon
NCI-H226 lung = system: NCI-H226 lung
SK-MEL-2 melanoma = system: SK-MEL-2 melanoma
OVCAR-3 ovarian = system: OVCAR-3 ovarian
PC-3 prostate = system: PC-3 prostate
BT-549 breast = system: BT-549 breast
SW-620 colon = system: SW-620 colon
SK-OV-3 ovarian = system: SK-OV-3 ovarian
HT29 colon = system: HT29 colon
OVCAR-4 ovarian = system: OVCAR-4 ovarian
SF-539 CNS = system: SF-539 CNS
HS 578T breast = system: HS 578T breast
786-0 renal = system: 786-0 renal
MOLT-4 leukemia = system: MOLT-4 leukemia
MCF7 breast = system: MCF7 breast
EKVX NSCLC = system: EKVX NSCLC
CAKI-1 renal = system: CAKI-1 renal
NCI-H23 lung = system: NCI-H23 lung
SF-295 CNS = system: SF-295 CNS
A549 NSCLC = system: A549 NSCLC

For `CCSC[C@@H]1C[C@](O)(c2ccc(Cl)cc2)[C@@H](c2ccc(Cl)cc2)O1`, the GI50 (SNB-75 CNS) was 16.3 µM, the TGI (SNB-75 CNS) was 32.4 µM and the GI50 (HL-60(TB) leukemia) was 15.2 µM. It also gave a TGI (HL-60(TB) leukemia) of 36 µM, a GI50 (UACC-257 melanoma) of 15.1 µM and a TGI (UACC-257 melanoma) of 30.1 µM. For the same molecule, the GI50 (KM12 colon) was 15.4 µM, the TGI (KM12 colon) was 30.9 µM and the GI50 (HCT-15 colon) was 18.8 µM. The TGI (HCT-15 colon) was 38.7 µM, the GI50 (RXF 393 renal) was 23.2 µM and the TGI (RXF 393 renal) was 38.5 µM. It also gave a GI50 (COLO 205 colon) of 14.4 µM, a TGI (COLO 205 colon) of 28.7 µM and a GI50 (MDA-MB-231 breast) of 18.2 µM. The TGI (MDA-MB-231 breast) was 35.4 µM, the GI50 (UACC-62 melanoma) was 13.9 µM and the TGI (UACC-62 melanoma) was 30.8 µM. For the same molecule, the GI50 (SNB-19 CNS) was 18.8 µM, the TGI (SNB-19 CNS) was 50 µM and the GI50 (MDA-MB-435) was 19.2 µM. The TGI (MDA-MB-435) was 40.1 µM, the GI50 (ACHN renal) was 19.6 µM and the TGI (ACHN renal) was 36.6 µM. For the same molecule, the GI50 (DU-145 prostate) was 15 µM, the TGI (DU-145 prostate) was 30 µM and the GI50 (HOP-92 NSCLC) was 20.9 µM. The TGI (HOP-92 NSCLC) was 36.9 µM, the GI50 (HOP-62 NSCLC) was 16.7 µM and the TGI (HOP-62 NSCLC) was 30.7 µM. For the same molecule, the GI50 (T-47D breast) was 14.8 µM, the TGI (T-47D breast) was 38.6 µM and the GI50 (SK-MEL-5 melanoma) was 15.3 µM. The TGI (SK-MEL-5 melanoma) was 28.7 µM, the GI50 (IGROV1 ovarian) was 15.3 µM and the TGI (IGROV1 ovarian) was 32.3 µM. It also gave a GI50 (OVCAR-8 ovarian) of 17.4 µM, a TGI (OVCAR-8 ovarian) of 45 µM and a GI50 (NCI/ADR-RES ovarian) of 20.5 µM. It also gave a TGI (NCI/ADR-RES ovarian) of 43.6 µM, a GI50 (SK-MEL-28 melanoma) of 16.2 µM and a TGI (SK-MEL-28 melanoma) of 32.8 µM. It also gave a GI50 (RPMI-8226 leukemia) of 20.8 µM, a TGI (RPMI-8226 leukemia) of 51.2 µM and a GI50 (HCC-2998 colon) of 20.3 µM. For the same molecule, the TGI (HCC-2998 colon) was 39.3 µM, the GI50 (A498 renal) was 17.8 µM and the TGI (A498 renal) was 32.1 µM. For the same molecule, the GI50 (OVCAR-5 ovarian) was 18.2 µM, the TGI (OVCAR-5 ovarian) was 34.3 µM and the GI50 (NCI-H460 lung) was 17.3 µM. For the same molecule, the TGI (NCI-H460 lung) was 34.1 µM, the GI50 (U251 CNS) was 18.3 µM and the TGI (U251 CNS) was 36.2 µM. The GI50 (NCI-H522 lung) was 15.5 µM, the TGI (NCI-H522 lung) was 31.4 µM and the GI50 (MALME-3M melanoma) was 15.2 µM. For the same molecule, the TGI (MALME-3M melanoma) was 29.8 µM, the GI50 (SN12C renal) was 17.6 µM and the TGI (SN12C renal) was 34.6 µM. It also gave a GI50 (LOX IMVI melanoma) of 18.5 µM, a TGI (LOX IMVI melanoma) of 40.7 µM and a GI50 (SR leukemia) of 11.1 µM. It also gave a TGI (SR leukemia) of 28.2 µM, a GI50 (TK-10 renal) of 17.8 µM and a TGI (TK-10 renal) of 36.3 µM. It also gave a GI50 (K-562 leukemia) of 18.8 µM, a TGI (K-562 leukemia) of 44.2 µM and a GI50 (CCRF-CEM leukemia) of 20.5 µM. For the same molecule, the TGI (CCRF-CEM leukemia) was 59.4 µM, the GI50 (UO-31 renal) was 16.5 µM and the TGI (UO-31 renal) was 30.4 µM. It also gave a GI50 (M14 melanoma) of 15.3 µM, a TGI (M14 melanoma) of 29.6 µM and a GI50 (SF-268 CNS) of 18.5 µM. For the same molecule, the TGI (SF-268 CNS) was 35.7 µM, the GI50 (HCT-116 colon) was 12.6 µM and the TGI (HCT-116 colon) was 25.1 µM. It also gave a GI50 (NCI-H226 lung) of 17.8 µM, a TGI (NCI-H226 lung) of 37.3 µM and a GI50 (SK-MEL-2 melanoma) of 16 µM. For the same molecule, the TGI (SK-MEL-2 melanoma) was 35 µM, the GI50 (OVCAR-3 ovarian) was 18.8 µM and the TGI (OVCAR-3 ovarian) was 36.1 µM. It also gave a GI50 (PC-3 prostate) of 20 µM, a TGI (PC-3 prostate) of 39.1 µM and a GI50 (BT-549 breast) of 15.2 µM. It also gave a TGI (BT-549 breast) of 28.9 µM, a GI50 (SW-620 colon) of 14.4 µM and a TGI (SW-620 colon) of 33.6 µM. For the same molecule, the GI50 (SK-OV-3 ovarian) was 22.4 µM, the TGI (SK-OV-3 ovarian) was 60.2 µM and the GI50 (HT29 colon) was 15.6 µM. For the same molecule, the TGI (HT29 colon) was 30.8 µM, the GI50 (OVCAR-4 ovarian) was 16.7 µM and the TGI (OVCAR-4 ovarian) was 32.1 µM. The GI50 (SF-539 CNS) was 16.5 µM, the TGI (SF-539 CNS) was 31.1 µM and the GI50 (HS 578T breast) was 18 µM. It also gave a TGI (HS 578T breast) of 39.6 µM, a GI50 (786-0 renal) of 17 µM and a TGI (786-0 renal) of 31.9 µM. The GI50 (MOLT-4 leukemia) was 17.7 µM, the TGI (MOLT-4 leukemia) was 43.6 µM and the GI50 (MCF7 breast) was 21.8 µM. The TGI (MCF7 breast) was 48.5 µM, the GI50 (EKVX NSCLC) was 17.3 µM and the TGI (EKVX NSCLC) was 40.7 µM. For the same molecule, the GI50 (CAKI-1 renal) was 27.6 µM, the TGI (CAKI-1 renal) was 63.2 µM and the GI50 (NCI-H23 lung) was 19.3 µM. The TGI (NCI-H23 lung) was 41.6 µM, the GI50 (SF-295 CNS) was 18.9 µM and the TGI (SF-295 CNS) was 35.4 µM. It also gave a GI50 (A549 NSCLC) of 17.3 µM and a TGI (A549 NSCLC) of 33.2 µM.
